Molecules are shown by their SMILES.

Data set [1] concerns HCT-116 colon carcinoma. Nature of the data set: MTT cell viability assay, 48 h. In kind it is cell-based. As to conditions: Homo sapiens, 48 h post-treatment, mean ± SD. On the procedure:
(§1) MCF-7 breast carcinoma and HCT-116 colon carcinoma cell lines were obtained from American Tissue Culture Collection (Virginia, USA) and maintained in RPMI 1640 medium supplemented with 10% FBS. HSC-2 oral cavity human squamous carcinoma cells were obtained from Health Science Research Resources Bank (Japan). HK-1, a previously characterized nasopharyngeal squamous carcinoma cells is a gift by Prof. Wong Y.C. from the University of Hong Kong. Both cell lines were grown in MEM medium supplemented with 10% FBS. For cell viability assay, cells at 4000 cells/well in 80 µl of medium were inoculated in 96-well plates and were allowed to adhere overnight. Cells were then treated with each compound at concentrations ranging from 0.001–10 µM giving the final volume of 100 µl in each well. At the end of incubation period, 15 µl of 5.0 mg/ml MTT in phosphate buffered saline (PBS) was added and incubated for 4 h. Medium and excessive MTT were aspirated and the resulting formazan was solubilized with 100 µl of dimethyl sulfoxide. Absorbance was read at 570 nm with SpectraMax M4 microplate spectrophotometer (Molecular Devices, CA).
(§2) The in vitro antitumor activity of rosamines was assessed using a 48 h endpoint cell viability methylthiazolyldiphenyl-tetrazolium bromide (MTT) assay against a panel of solid human tumor cell lines including breast carcinoma (MCF-7), colon carcinoma (HCT-116), oral squamous cell carcinoma (HSC-2) and nasopharyngeal carcinoma (HK-1). […] Within the halide series, cytotoxicities increase in the following order 4>3>[…] (Cl>Br>I), although not statistically significant (P>0.05).
(Formazan colour is commonly taken as a measure of viable cells.)

The subject of data set [2] is HSC-2 oral cavity human squamous carcinoma cells. Nature of the data set: MTT cell viability assay, 48 h. The format is cell-based. The note with it: 48 h post-treatment, mean ± SD. On the procedure:
as §1, §2

Data set [3] has as its system MCF-7 breast carcinoma. Briefly: MTT cell viability assay, 48 h. In kind it is cell-based. As to conditions: Homo sapiens, MCF7, 48 h post-treatment, mean ± SD. On the procedure: as §1, §2
The test system of data set [4] is HK-1 nasopharyngeal squamous carcinoma cells. Briefly: MTT cell viability assay, 48 h. The format is cell-based. The note with it: Homo sapiens, 48 h post-treatment, mean ± SD. The procedure: as §1, §2
The subject of data set [5] is panel of solid human tumor cell lines (MCF-7, HCT-116, HSC-2, HK-1). Briefly: MTT cell viability assay, panel of cancer cell lines. In kind it is cell-based. As to conditions: mean over MCF-7, HCT-116, HSC-2, HK-1. The procedure: as §1, §2
Data set [6] relates to 4T1 mouse mammary carcinoma. Briefly: In vivo antitumor efficacy, tumor allograft. The arrangement: species or system female BALB/c mice. As to conditions: for median day for 4T1 tumor in attaining two-doubling growth (RTV = 4): control approximately 9 days; for terminal percent test/control (% T/C): end of experiment (day 14). On the procedure: All animal experiments were conducted in accordance with protocols reviewed and approved by Dr. Haji Azizuddin Bin Haji Kamaruddin, Laboratory Animal Centre (LAC) Animal Care and Use Committee of Faculty of Medicine, University of Malaya (reference number FAR/14/07/2010/LSH). Female BALB/c mice aged between 6–8 weeks with a minimum weight of 17 g were maintained in a controlled environment of 12 h light-dark cycles with free access to food (standard pellet diet purchased from Altromin International, Lage, Germany) and purified water. Female mice were used because the hormonal environment essential for development of implanted 4TI mouse mammary carcinoma would be present.
(§3) Tumor allografts were initiated by subcutaneous injection of 5×10^5 4T1 mouse mammary carcinoma in 0.1 ml RPMI 1640 media into the inguinal mammary fat-pads of mice. Tumor growth was monitored and treatments were initiated when tumors reached volume of approximately 200 mm^3. To assess the tumor growth inhibition, 4T1 tumor bearing mice were randomized into groups with at least eight animals per group. Compound 5 was prepared at 0.3 mg/ml in normal saline and treatment was administered intravenously at 5 mg/kg on staging day or 3 mg/kg every other day for six treatments (q2dx6). For control group, normal saline was given. The animal weights and tumor volume were measured three times weekly for 14 d. The tumor volume was calculated using the equation: (length×width^2)/2 and relative tumor volume (RTV) was calculated for every tumor volume at any given time (VT) against the tumor volume at staging day (V0) using the equation: VT/V0. The RTV – time profile for each group was plotted and tumor growth delay in attaining a specified number of doublings compared to control was determined, [19]. Results were expressed as median ±95% confidence interval (n = 8).

Data set [7] has as its target ATP synthase (Mus musculus, UniProt P56480+Q03265). Nature of the data set: Immunocapture ELISA microplate enzyme activity assay. The note with it: read-out: IC50 ATP synthase activity; mouse liver mitochondria extract; 0.01–10 µM.
Protocol: (§4) Functional mitochondria were isolated from mouse liver by differential centrifugation method [14]. Briefly, a mouse (∼30 g) was starved overnight before sacrificed by cervical dislocation. The liver was harvested promptly and rinsed with ice-cold mitochondria isolation buffer (10 mM Tris-MOPS, 1 mM EGTA/Tris, 0.2 M sucrose, pH 7.4) until blood-free. The liver was then cut into small pieces in a beaker using scissors while keeping in an ice-bath. The buffer was replaced with 5 ml of fresh isolation buffer and the liver was homogenized with a Polytron probe (Ultra-Turrax T8, Ika-Werke, Germany) until smooth. The homogenate was centrifuged at 1000 g for 15 min at 4°C. The pellet was discarded and the supernatant was centrifuged at 12000 g for 15 min at 4°C to pellet the mitochondria. The mitochondria were washed twice by resuspending in 4 volumes of isolation buffer containing 1× protease cocktail inhibitor. The concentration of the mitochondrial protein was determined using the Bradford (Biorad protein assay) method. […]
(§5) In general, plate pre-coated with appropriate immunocapture antibody was incubated with mitochondria extract at recommended concentration to allow immobilization of their respective complexes. Complexes activity was measured by addition of substrates solution mix provided by the kit and compound was added at concentration ranging from 0.01–10 µM in triplicate. […]
Data set [8] deals with Complex IV (Mus musculus, UniProt P00397+P00405+P00416). Described as above. The note with it: read-out: IC50 Complex IV activity; mouse liver mitochondria extract; 0.01–10 µM.
Protocol: as §4, §5
The nature of data set [9]: Solubility in aqueous media for treatment stock. As to conditions: reconstitution of treatment stock at 10 mM. In kind it is physicochemical. On the procedure: Compounds 3, 4 and 6 were synthesized to test if meso-replacement with 4-bromobenzene 3, 4-chlorobenzene 4 or 2-furyl 6 groups would affect the anticancer activity. In addition, the 4-iodobenzene 7 or 2-thiofuran meso substituents 8 and unsymmetrical piperidine/[…] amine substituents were synthesized and investigated. Rosamines 1–4 and 7 were not appreciably water-soluble so they were reconstituted in DMSO at 10 mM as treatment stock.

In data set [10] the target is Complex II (Mus musculus, UniProt Q8K2B3+Q9CQA3+Q9CXV1+Q9CZB0). Briefly: Immunocapture ELISA microplate enzyme activity assay. In kind it is biochemical. As to conditions: mouse liver mitochondria extract; 0.01–10 µM.
A short description of data set [11]: Body weight and adverse effects in treated mice. The format is in vivo. On the procedure: as §3, with “Compound 5 was prepared at 0.3 mg/ml in normal saline and treatment was administered intravenously at 5 mg/kg on staging day or 3 mg/kg every other day for six treatments (q2dx6).” left out
Meanwhile, the terminal percent test/control (% T/C) values calculated at the end of experiment were 72% and 66% in mice receiving 5 mg/kg and 3 mg/kg (q2d×6) respectively. The antitumor efficacy of 5 is minimal as the % T/C attained after treatment had ended is not ≤40% activity, the minimal rating for a compound to be considered active. […]

Chain of Complex II (Q8K2B3 43-664): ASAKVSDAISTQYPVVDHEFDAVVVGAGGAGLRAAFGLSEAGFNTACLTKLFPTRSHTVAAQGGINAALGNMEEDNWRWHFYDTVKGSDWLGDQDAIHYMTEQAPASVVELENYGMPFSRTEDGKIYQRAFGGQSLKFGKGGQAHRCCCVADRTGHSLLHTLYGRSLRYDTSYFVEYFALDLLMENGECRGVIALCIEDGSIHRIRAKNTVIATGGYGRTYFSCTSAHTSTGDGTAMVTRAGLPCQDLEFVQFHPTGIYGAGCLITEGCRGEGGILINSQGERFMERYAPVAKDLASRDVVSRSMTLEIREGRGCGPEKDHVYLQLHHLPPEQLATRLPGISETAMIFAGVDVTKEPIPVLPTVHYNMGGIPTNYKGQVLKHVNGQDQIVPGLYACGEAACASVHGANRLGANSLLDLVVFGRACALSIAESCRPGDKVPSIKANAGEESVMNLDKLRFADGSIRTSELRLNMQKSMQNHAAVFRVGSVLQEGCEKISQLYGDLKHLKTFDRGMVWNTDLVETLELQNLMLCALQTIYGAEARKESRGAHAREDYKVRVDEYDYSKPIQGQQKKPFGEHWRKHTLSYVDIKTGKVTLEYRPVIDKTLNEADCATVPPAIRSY
Chain of Complex II (Q9CQA3 31-282): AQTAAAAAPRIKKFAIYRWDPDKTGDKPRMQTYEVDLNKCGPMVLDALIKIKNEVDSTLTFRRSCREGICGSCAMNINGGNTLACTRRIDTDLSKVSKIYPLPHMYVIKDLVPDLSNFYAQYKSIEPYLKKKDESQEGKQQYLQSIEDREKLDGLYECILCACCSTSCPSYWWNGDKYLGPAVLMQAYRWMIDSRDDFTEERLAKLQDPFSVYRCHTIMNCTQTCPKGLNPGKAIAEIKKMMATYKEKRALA
Chain of Complex II (Q9CZB0 30-169): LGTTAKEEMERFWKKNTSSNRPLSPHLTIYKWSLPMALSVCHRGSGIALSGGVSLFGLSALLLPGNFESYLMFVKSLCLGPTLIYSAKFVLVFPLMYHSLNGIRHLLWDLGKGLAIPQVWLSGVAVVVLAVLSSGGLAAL
Chain of Complex II (Q9CXV1 57-159): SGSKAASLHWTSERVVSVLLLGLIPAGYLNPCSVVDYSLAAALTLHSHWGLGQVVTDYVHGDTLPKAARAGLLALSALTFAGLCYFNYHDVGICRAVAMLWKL

Regarding `c1csc(-c2c3ccc(=[N+]4CCCCC4)cc-3oc3cc(N4CCCCC4)ccc23)c1` [Rosamine 5], the IC50 (in general, the concentration that gives 50% inhibition) in [1] worked out at 70 ± 20 nM; in data set [2], 90 ± 10 nM; in data set [3], 180 ± 20 nM; in [4], 100 nM; in data set [5], 110 nM; in data set [7], 3000 ± 800 nM. Moreover, the results for the half-maximal inhibitory concentration (IC50) in data set [8] and in data set [10] were over 10000 nM and 9600 ± 100 nM, respectively. In addition, the “median day for 4T1 tumor in attaining two-doubling growth (RTV = 4)” value in [6] (3 mg/kg i.v. q2d×6) was about 13 days; in data set [6] (5 mg/kg single bolus i.v.), about 11 days. Also, the “terminal percent test/control (% T/C)” value turned out to be 66% in data set [6] (3 mg/kg i.v. q2d×6) and 72% in data set [6] (5 mg/kg single bolus i.v.). Further, the “two-doubling tumor growth delay (T-C)/C” value in data set [6] (5 mg/kg single bolus i.v.) turned out to be 22%. The water solubility result in data set [9] was “readily solubilized in aqueous media”. In addition, in data set [11] (4T1 tumor bearing mice, 5 mg/kg or 3 mg/kg (q2d×6) i.v., 14 d), the body weight loss is at most 15%. Moreover, the adverse effects entry in [11] (mice, 10 mg/kg dose) was “unacceptable adverse effects such as weight loss, diarrhea and sudden death”.

(Values after PMC3951181, “Rosamines Targeting the Cancer Oxidative Phosphorylation Pathway” (PLoS ONE, 2014).)
